Patent publication US9649324B2, “Use of tylvalosin as antiviral agent” (ECO ANIMAL HEALTH LIMITED, priority 2006, dated 2017)

Tests used:
PRRSV = assay: Inhibitors of PRRSV infection added at various times pre and post infection (Example 7); assay type: cell-based
[1] = tested on: VR2332 (US strain of PRRSV); assay: VR2332 (US strain of PRRSV) entry assay in MA104 cells (Example 10); conditions: 4 h pretreatment, moi 10, overnight
endosomal pH = assay: Acridine orange assay of endosomal pH (Example 13); assay type: cell-based
Method: Acridine orange is a dye that causes cells to fluoresce green with the exception of acidic compartments (such as endosomes) that appear red—due to the protonation of the dye and quenching of the green fluorescence. A substance that raises the endosomal pH will prevent the appearance of the red fluorescence. The effect of Aivlosin® and other macrolide antibiotics on a the staining of endosomes by acridine orange in number of cells lines was determined (see FIG. 19). An area of cells grown on a glass coverslip is first selected using a DAPI stain. […] This selection procedure helps reduce any bias in the results. The green and red filters on the epifluorescence microscope were then used to examine about 20 cells. The number of red spots (endosome vesicles) in was determined. The average number of Acridine orange stained endosomes was counted.

LLC-PK1 cells = assay: Intracellular accumulation in pig kidney epithelial cells; assay type: in vitro ADME; conditions: LLC-PK1, 10 μg/mL
Method: LLC-PKI cells in 6 cm^2 plastic tissue culture dishes were incubated with 10 μg/mL of the different macrolides. Cells and medium were harvested as described above at 30, 75 and 120 min.
(§1) All the supernatant and cell samples were transported frozen (at approximately −20° C.) to York Bioanalytical Solutions (York, England) for analysis. Briefly, 0.25 g of buffer (RPMI medium containing 10% FCS) was weighed into a polypropylene tube. A 50 μL volume of the appropriate working solution was added to the quality control (QC) samples. Methanol (50 μL) was added to each blank sample used for preparation of calibration standards, recovery samples and reagent blanks. A 2.5 mL volume of 0.1 M phosphate buffer was added to each sample, vortex mixed for approximately 1 min and then centrifuged at 3220×g for 10 min at 4° C.
(§2) For the liquid-liquid clean-up phase, an aliquot (100 μL) of the supernatant was transferred to a polypropylene tube. The pH was adjusted to pH 8-8.5 by the addition of 0.1 M NaOH, and vortex mixed. Ethyl acetate (5 mL) was added and after capping, the whole mixture was shaken for 10 min and then centrifuged at 3220×g for 10 min at 4° C.
(§3) Ammonium acetate (20 mM; pH native)—formic acid, 1000:3, v/v (100 μL) was added to each well in a 2 mL polypropylene collection plate. An aliquot of the ethyl acetate mixture (100 μL) was transferred to the polypropylene collection plate and evaporated under nitrogen (40° C.) until the ethyl acetate was fully evaporated whilst the ammonium acetate remained. Methanol (100 μL) was added to each well, excluding the calibration standards.
(§4) To each well containing a calibration standard, 100 μL of the appropriate calibration working solution was added. Samples were then vortex mixed for at least 10 min and submitted for liquid chromatography with tandem mass spectrometric analysis. The method stated was applicable to the samples of media (and the calibration standards and quality control samples).
(§5) For the cells, the sample tubes were weighed, and 100 μL of acetonitrile was added. The samples were vortex mixed for 10 sec, then centrifuged at 10285×g at 4° C. for 5 min. The sample was transferred to a polypropylene tube. The original sample tube was washed with 0.1 M phosphate buffer (1 mL). This was transferred to the polypropylene tube. A second wash of 1 mL was made, then a final wash of 0.5 mL. The polypropylene tube was now at the same stage as the end of the liquid extraction, but with the cells present rather than media. This was then taken through the sample preparation as described above. The original sample tubes were allowed to dry (i.e. any remaining solvent evaporated off) and were then reweighed to determine the weight of cells in the sample, to allow the concentration per gram of cells to be determined.

[2] = tested on: equine influenza strain Miami; assay type: cell-based; conditions: 1 μg/ml, 4 h pretreatment, moi 10, fixed 4 h post infection
HRT-18 cells = assay: Intracellular accumulation of macrolides in HRT-18 cells; assay type: in vitro ADME, human; conditions: for average intracellular concentration / intracellular:extracellular ratio: 10 μg/mL antibiotic
Method: HRT-18 cells, in 6 cm tissue cultures dishes, were incubated in the presence of 0.5, 5 or 50 μg/mL tylvalosin. After 4 h, two dishes for each tylvalosin concentration and two dishes without antibiotic were removed from the incubator. A sample of medium (about 1 mL) was removed, placed in a labelled Eppendorf tube and stored at −20° C. The rest of the medium was then removed. Each of the cell monolayers was washed twice in PBS, using approximately 5 mL for each wash. The plunger from a 2 mL plastic syringe was used to gently scrape off the cells. PBS (500 μL) was added to the dish and the cells gently removed into this medium, using a micropipette. The sample was then placed in an Eppendorf tube and centrifuged at 8000×g in a bench centrifuge (Biofuge pico, Heraeus instruments) for 13 sec. An obvious cell pellet formed. The supernatant was removed using a micropipette and the cell material was stored at −20° C. in a labelled Eppendorf tube. After approximately 24 h the remaining tissue culture dishes were removed from the incubator and treated as described above for the 4 h samples. All the samples, including the 4 h samples, were then stored at −70° C.
HRT-18 cells were prepared as described above and used at passage 42. Stock solutions of antibiotics (either tylvalosin, tylosin or tilmicosin) were diluted in growth media and 10 μg/mL each antibiotic was added to the confluent cell monolayers. The cells were incubated at 37° C. in a 5% CO2 atmosphere for either 4 h or 24 h. The media and cells were harvested and tested for antibiotic, as described above.
as §1, §2, §3, §4
as §5, with “The original sample tubes were allowed to dry (i.e. any remaining solvent evaporated off) and were then reweighed to determine the weight of cells in the sample, to allow the concentration per gram of cells to be determined.” left out

[3] = added 2 or 4 hours after infection

`CCC1OC(=O)CC(OC(C)=O)C(C)C(OC2OC(C)C(OC3CC(C)(O)C(OC(=O)CC(C)C)C(C)O3)C(N(C)C)C2O)C(CC=O)CC(C)C(=O)C=CC(C)=CC1COC1OC(C)C(O)C(OC)C1OC` (stereo not shown) [tylvalosin, 3-O acetyl-4″-O-isovaleryltylosin] was tested, and the PRRSV spread (PRRSV; [3]) was “inhibited”, the “initial PRRSV infection (initial site of infection)” value (PRRSV; [3]) was “inhibited” and the “initial PRRSV infection” value (PRRSV; added 4 hours before infection) was “inhibited”. The “initial PRRSV infection” value (PRRSV; added at the time of infection) was “inhibited”, the “inhibition of VR2332 infection” value [1] was “sensitive” and the “effect on raising the pH in the endosomes” value (endosomal pH; acridine orange stained endosomes, any cell line) was “raises the pH in endosomes”. For the same compound, the “effect on endosomal pH” value (endosomal pH; epithelial cells) was “greater effects than tilmicosin”, the average intracellular concentration (LLC-PK1 cells; 75 min) was 53.95 μg/mg cells and the “intracellular:extracellular ratio” value (LLC-PK1 cells; 120 min) was 8.9. For the same compound, the “inhibition of infection of MDCK cells” value [2] was 92%, the average intracellular concentration (HRT-18 cells; HRT-18 cells, 4 h) was 61.8 μg/mg cells and the “intracellular:extracellular ratio” value (HRT-18 cells; HRT-18 cells, 4 h) was 5.13 fold. For the same compound, the average intracellular concentration (HRT-18 cells; HRT-18 cells, 24 h) was 57.6 μg/mg cells, the “intracellular:extracellular ratio” value (HRT-18 cells; HRT-18 cells, 24 h) was 5.34 fold and the “concentration of tylvalosin accumulated in the cells” value (HRT-18 cells; HRT-18 cells, 0.5, 5 or 50 μg/mL tylvalosin, within 4 h) was “at least 585 μg”. For the same compound, the “cell:medium concentration ratio” value (HRT-18 cells; HRT-18 cells, 24 h incubation, compared with 4 h) was “lower”.
